# Patent US7335248B2, “Marine antifouling coating compositions” (Novus International, Inc., priority 2005, dated 2008)
# “And” between values parts separate entries of the source, which are not always exact repeats. Identical values can stand only once. Like-named read-outs stand apart in the source and are kept apart here.
# Legend:
# [1] = test system: Oyster; details: 5%, 15 months, per panel side
# Excerpt: (§1) HMTBA-Cu and HMTBA-Zn were supplied in powdered form by Novus International. […] The formulated paints were applied on PVC test panels (3 inch by 10 inch, ⅛ inch thickness), allowed to dry and shipped to a marine research center at Sacred Heart Marine Research Centre (SHMRC) in Tuticorin, India. The panels were mounted on frames on a floating platform in the open ocean and submerged totally under 3 ft of seawater for a period of 6 months, 9, or 12 months.
# (§2) After the completion of the exposure period the panels were taken out of the seawater and transported to the shore laboratory in containers with seawater. The panels were evaluated by digital photography and physical examination of the coated surface. Barnacles were counted on the surface of the panels and along the edges. When there was substantial fouling on the surface, the area of the panel surface covered by barnacle fouling was estimated according to the methods described in ASTM D-3623. The panels were returned to the platform and again placed in total immersion. The panels were out of seawater during the examination for no more than 10 minutes.
# [2] = test system: Tube-worms; details: CuSP paint; 5%; 15 months; per panel side; nitrate trihydrate
# Excerpt: as §1, §2
# [3] = test system: barnacles; details: 5%, 15 months, per panel side
# Excerpt: as §1, §2
# [4] = test system: barnacle cyprids; experiment: Barnacle cyprid settlement assay (method of Rittschof et al.), EC50 by probit analysis; assay type: in vivo, Balanus amphitrite amphitrite; details: for appearance and swimming behavior of cyprids: 0.01 mg/ml and higher (so in the source); for toxic effects on the cyprids: 0.1 mg per ml; for EC50: barnacle cyprids not settled/attached to Petri dish; for EC50 / SLOPE: probit analysis; for inhibition of barnacle cyprid settlement: in vivo; for SLOPE: barnacle settlement
# Description: In this case, the defined effect is that the cyprids have not settled and have not attached to the Petri dish. Thus, in the attached data set, the “set” column indicates the total number of cyprid larvae that have settled and attached on the surface of the Petri dish and “non-set” indicates the total number of cyprids that remain swimming in the seawater and have not settled on the surface of the Petri dish.
# Briefly, the barnacle adults are cultured in the laboratory and allowed to spawn naturally. The larvae are harvested and grown in artificial culture systems until they reach the cyprid stage at which time the larvae become competent to attach to surfaces. Once attached, the cyprids transform into a pinhead barnacle, thus becoming permanently attached to the surface. Rittschof D, Clare A S, Gerhart D J, Avelin Mary, Bonavetura J (1991) Barnacle in vitro assays for biologically active substances: toxicity and settlement assays using mass cultured Balanus amphitrite amphitrite Darwin. Biofouling (1992) 6:115-122.
# (§3) Five replicates (e.g., a-e) for each concentration and the control were collected.
# [5] = Solubility in seawater at the levels added in the cyprid assay; assay type: physicochemical; details: at the levels added (up to 0.1 mg/ml)
# Excerpt: as §3
# [6] = test system: barnacles; experiment: Six month static immersion fouling test of painted PVC panels (open ocean, Tuticorin, India); assay type: in vivo; details: for Total barnacle Count: both duplicate panels; for Mean ± SD (barnacle count): four panel surfaces; for efficacy / barnacle settlement: copper self-polishing and metal-free ablative coatings, six months of exposure
# Excerpt: The reported data were extracted from the raw data as described below, and are shown as total barnacle counts for both duplicate panels of each test formulation. In Table 4, the mean and standard deviation of the data derived from the four panels' surfaces of the duplicate panels for each group. The barnacle counts along the edges were not considered in this evaluation because of the expected uneven coating and inherent tendency of barnacles to first attach to edges. In addition, coatings along the edges can be easily damaged or uneven. Thus, for evaluation purposes only the coated surfaces of the flat areas were considered for this evaluation.
# Zinc Omadine was used as the positive control for this series of tests. It is important to note here that fouling is continuous throughout the year at the Tuticorin, India site and the degree of settlement is generally the same for the same coating system.
# [7] = test system: barnacles; experiment: Nine month static immersion testing in the Indian Ocean; assay type: in vivo; details: 9-month static immersion
# Excerpt: Table 5 summarizes the anti-fouling data from the nine-month immersion test, performed as described above for the six month tests.
# [8] = 1e-5 mg/ml, Total of five replicates
# [9] = 1e-4 mg/ml, Total of five replicates
# [10] = 0.001 mg/ml, Total of five replicates
# [11] = 0.01 mg/ml, Total of five replicates
# [12] = 0.1 mg/ml, Total of five replicates
# [13] = CUAB coating, 1% (w/w), 6 months
# [14] = CUAB coating, 3% (w/w), 6 months
# [15] = CUAB coating, 5% (w/w), 6 months
# [16] = CUAB coating, 10% (w/w), 6 months
# [17] = CUSP coating, 1% (w/w), 6 months
# [18] = CUSP coating, 3% (w/w), 6 months
# [19] = CUSP coating, 5% (w/w), 6 months
# [20] = CUSP coating, 10% (w/w), 6 months
# [21] = MFAB coating, 1% (w/w), 6 months
# [22] = MFAB coating, 3% (w/w), 6 months
# [23] = MFAB coating, 5% (w/w), 6 months
# [24] = MFAB coating, 10% (w/w), 6 months
compound,measurement,setting,value
"O.O.O.O=[N+]([O-])[O-].O=[N+]([O-])[O-].[Cu+2] [Copper (II) Nitrate trihydrate, copper (II) nitrate trihydrate]",No. of Oyster,[1]; CuAB paint,1
same,No. of Oyster,[1]; CuSP paint,2
same,No. of Tube-worms,[2],2 and 1
same,edge No of Barnacles,[3]; CuAB paint,3
same,Maximum diameter in mm,"[3]; CuAB paint, nitrate trihydrate",10 mm and 11 mm and 9 mm
same,No. of barnacles on the coated surface,[3]; CuSP paint,84
same,% of the surface with barnacles fouling,"[3]; CuSP paint, nitrate trihydrate",50% and 40% and 60%
same,Maximum diameter in mm,"[3]; CuSP paint, nitrate trihydrate",10 mm and 11 mm
"CSCCC(O)C(=O)[O-].CSCCC(O)C(=O)[O-].[Cu+2] (centres unmarked) [HMTBA-Cu, copper 2-hydroxy-4-methylthiobutanoate chelate]",% of set,[4]; [8],74%
same,Non set,[4]; [8],86
same,Set,[4]; [8],241
same,% of set,"[4]; 1e-5 mg/ml, single replicate",77% and 70% and 74% and 68% and 82%
same,Non set,"[4]; 1e-5 mg/ml, single replicate",14 and 21 and 15 and 25 and 11
same,Set,"[4]; 1e-5 mg/ml, single replicate",46 and 48 and 42 and 54 and 51
same,% of set,[4]; [9],71%
same,Non set,[4]; [9],89
same,Set,[4]; [9],213
same,% of set,"[4]; 1e-4 mg/ml, single replicate",66% and 79% and 63% and 73% and 72%
same,Non set,"[4]; 1e-4 mg/ml, single replicate",11 and 12 and 29 and 16 and 21
same,Set,"[4]; 1e-4 mg/ml, single replicate",21 and 46 and 49 and 43 and 54
same,% of set,[4]; [10],53%
same,Non set,[4]; [10],155
same,Set,[4]; [10],173
same,% of set,"[4]; 0.001 mg/ml, single replicate",46% and 56% and 42% and 55% and 65%
same,Non set,"[4]; 0.001 mg/ml, single replicate",27 and 34 (2×) and 42 and 18
same,Set,"[4]; 0.001 mg/ml, single replicate",23 and 44 and 31 and 41 and 34
same,appearance and swimming behavior of cyprids,[4],no adverse effects
same,% of set,[4]; [11],10%
same,Non set,[4]; [11],285
same,Set,[4]; [11],30
same,% of set,"[4]; 0.01 mg/ml, single replicate",9% and 6% and 8% (2×) and 24%
same,Non set,"[4]; 0.01 mg/ml, single replicate",79 and 66 and 59 and 25 and 56
same,Set,"[4]; 0.01 mg/ml, single replicate",8 (2×) and 4 and 5 (2×)
same,toxic effects on the cyprids,[4],death of all cyprids
same,% of set,[4]; [12],0%
same,Non set,[4]; [12],314
same,Set,[4]; [12],0
same,% of set,"[4]; 0.1 mg/ml, single replicate",0%
same,Non set,"[4]; 0.1 mg/ml, single replicate",69 and 94 and 54 and 59 and 38
same,Set,"[4]; 0.1 mg/ml, single replicate",0
same,EC50,[4],1.8 µg/mL
same,inhibition of barnacle cyprid settlement,[4],biologically active as inhibitors of barnacle cyprid settlement
same,SLOPE,[4],1.567
same,solubility in seawater,[5],soluble in seawater at the levels added
same,Total barnacle Count,[6]; [13],472
same,Mean ± SD (barnacle count),[6]; [13],118.0 ± 158.0
same,Total barnacle Count,[6]; [14],170
same,Mean ± SD (barnacle count),[6]; [14],42.5 ± 21.1
same,Total barnacle Count,[6]; [15],126
same,Mean ± SD (barnacle count),[6]; [15],31.4 ± 46.4
same,Total barnacle Count,[6]; [16],123
same,Mean ± SD (barnacle count),[6]; [16],30.8 ± 12.9
same,Total barnacle Count,[6]; [17],4
same,Mean ± SD (barnacle count),[6]; [17],1.0 ± 1.7
same,Total barnacle Count,[6]; [18],6
same,Mean ± SD (barnacle count),[6]; [18],1.5 ± 2.6
same,Total barnacle Count,[6]; [19],8
same,Mean ± SD (barnacle count),[6]; [19],2.0 ± 2.4
same,Total barnacle Count,[6]; [20],9
same,Mean ± SD (barnacle count),[6]; [20],2.3 ± 1.9
same,Total barnacle Count,[6]; [21],8
same,Mean ± SD (barnacle count),[6]; [21],2.0 ± 2.4
same,Total barnacle Count,[6]; [22],13
same,Mean ± SD (barnacle count),[6]; [22],3.3 ± 4.5
same,Total barnacle Count,[6]; [23],11
same,Mean ± SD (barnacle count),[6]; [23],2.8 ± 4.2
same,Total barnacle Count,[6]; [24],4
same,Mean ± SD (barnacle count),[6]; [24],1.0 ± 1.7
same,efficacy / barnacle settlement,[6],significant efficacy
same,LS MEAN BARNACLES,[7]; CUSP PAINT,16
same,LS MEAN BARNACLES,[7]; MFAB PAINT,1.25
"CSCCC(O)C(=O)[O-].CSCCC(O)C(=O)[O-].[Zn+2] (centres unmarked) [HMTBA-Zn, zinc 2-hydroxy-4-methylthiobutanoate chelate]",% of set,[4]; [9],61%
same,Non set,[4]; [9],122
same,Set,[4]; [9],191
same,% of set,"[4]; 1e-4 mg/ml, single replicate",57% and 60% (2×) and 77% and 55%
same,Non set,"[4]; 1e-4 mg/ml, single replicate",28 and 21 and 12 and 25 and 36
same,Set,"[4]; 1e-4 mg/ml, single replicate",37 and 31 and 41 and 38 and 44
same,% of set,[4]; [10],58%
same,Non set,[4]; [10],135
same,Set,[4]; [10],187
same,% of set,"[4]; 0.001 mg/ml, single replicate",62% and 78% and 69% and 41% and 42%
same,Non set,"[4]; 0.001 mg/ml, single replicate",30 and 14 and 16 and 38 and 37
same,Set,"[4]; 0.001 mg/ml, single replicate",49 (2×) and 36 and 26 and 27
same,appearance and swimming behavior of cyprids,[4],no adverse effects
same,% of set,[4]; [11],32%
same,Non set,[4]; [11],207
same,Set,[4]; [11],99
same,% of set,"[4]; 0.01 mg/ml, single replicate",30% and 26% and 40% and 32% and 35%
same,Non set,"[4]; 0.01 mg/ml, single replicate",49 and 54 and 44 and 34 and 26
same,Set,"[4]; 0.01 mg/ml, single replicate",21 and 19 and 29 and 16 and 14
same,toxic effects on the cyprids,[4],death of all cyprids
same,% of set,[4]; [12],0%
same,Non set,[4]; [12],346
same,Set,[4]; [12],0
same,% of set,"[4]; 0.1 mg/ml, single replicate",0%
same,Non set,"[4]; 0.1 mg/ml, single replicate",92 and 69 and 63 and 58 and 64
same,Set,"[4]; 0.1 mg/ml, single replicate",0
same,EC50,[4],5.7 µg/mL
same,inhibition of barnacle cyprid settlement,[4],biologically active as inhibitors of barnacle cyprid settlement
same,SLOPE,[4],1.564
same,NO. RESPONDING,"[4]; probit data as input, DOSE .00001",97
same,solubility in seawater,[5],soluble in seawater at the levels added
same,Total barnacle Count,[6]; [13],123
same,Mean ± SD (barnacle count),[6]; [13],30.8 ± 11.6
same,Total barnacle Count,[6]; [14],52
same,Mean ± SD (barnacle count),[6]; [14],13.0 ± 10.7
same,Total barnacle Count,[6]; [15],1
same,Mean ± SD (barnacle count),[6]; [15],0.3 ± 0.4
same,Total barnacle Count,[6]; [16],101
same,Mean ± SD (barnacle count),[6]; [16],25.3 ± 2.9
same,Total barnacle Count,[6]; [17],1
same,Mean ± SD (barnacle count),[6]; [17],0.3 ± 0.4
same,Total barnacle Count,[6]; [18],0
same,Mean ± SD (barnacle count),[6]; [18],0
same,Total barnacle Count,[6]; [19],0
same,Mean ± SD (barnacle count),[6]; [19],0
same,Total barnacle Count,[6]; [20],2
same,Mean ± SD (barnacle count),[6]; [20],0.5 ± 0.9
same,Total barnacle Count,[6]; [21],0
same,Mean ± SD (barnacle count),[6]; [21],0
same,Total barnacle Count,[6]; [22],3
same,Mean ± SD (barnacle count),[6]; [22],0.8 ± 1.3
same,Total barnacle Count,[6]; [23],1
same,Mean ± SD (barnacle count),[6]; [23],0.3 ± 0.4
same,Total barnacle Count,[6]; [24],7
same,Mean ± SD (barnacle count),[6]; [24],1.8 ± 1.3
same,comparative performance,"[6]; copper ablative coatings, 5%, six months",outperformed
same,efficacy / barnacle settlement,[6],significant efficacy
same,LS MEAN BARNACLES,[7]; CUSP PAINT,3
same,LS MEAN BARNACLES,[7]; MFAB PAINT,1.5
"[O-][n+]1ccccc1[S-].[O-][n+]1ccccc1[S-].[Zn+2] [Zn Omadine, zinc salt of pyrithione, reference compound]",Total barnacle Count,[6]; [15],167
same,Mean ± SD (barnacle count),[6]; [15],41.8 ± 23.3
same,Total barnacle Count,[6]; [19],33
same,Mean ± SD (barnacle count),[6]; [19],8.3 ± 4.0
same,Total barnacle Count,[6]; [23],113
same,Mean ± SD (barnacle count),[6]; [23],28 ± 15.0
same,barnacle coverage of panels,"[6]; MFSP coating, 5%, 6 months",fully covered by barnacles
same,efficacy / barnacle settlement,[6],substantial settlement
"CSCC[C@H](N)C(=O)O.[Zn] [Zn-Methionine, zinc methionine]",LS MEAN BARNACLES,[7]; CUSP PAINT,0.5
same,LS MEAN BARNACLES,[7]; MFAB PAINT,8
